# Assay results as given in EP0365763A1, “Antiproliferative cyclic compounds” (priority 1988, dated 1990).
# Like-named read-outs stand apart in the source and are kept apart here.
# What was measured:
# [1] = system: CCRF-CEM, a human lymphoblastic leukemia line of T-cell origin (ATCC CCL 119); test: Cellular growth in culture, MTT-tetrazolium reduction assay; type: cell-based; conditions: for IC50: Homo sapiens, CCRF-CEM, 120 h, read-out: IC50 FOR CELLS IN CULTURE CCRF-CEM; for inhibition at this concentration, CCRF-CEM: at the highest concentration tested, 5 days
# Method: (§1) Cellular growth in the presence of the compounds in question was assessed using two cell lines, the Ll2l0 murine leukemia (ATCC CCL 219) and CCRF-CEM, a human lymphoblastic leukemia line of T-cell origin (ATCC CCL 119). Both lines were maintained in RPMI 1640 medium containing 5% heat-inactivated fetal bovine serum without antibiotics.
# (§2) IC₅₀ values were determined in 150 microliter microcultures each containing 1500 (Ll2l0) or 4000 (CCRF-CEM) cells established in 96 well plates in growth medium supplemented with 50 IU/ml penicillin and 50 mcg/ml streptomycin. Growth was measured over 3 days (Ll2l0) or 5 days (CCRF-CEM) of continuous exposure to varying concentrations of each test compound added 4 h. after initial cell plating by the MTT-tetrazolium reduction assay of Mosmann (T. J. Immunol. Meth. 65, 55-63 (1983)) modified according to Alley et al. (Cancer Res. 48 589-601 (1988)). Water insoluble derivatives were dissolved in DMSO and diluted to a final concentration of 0.5% solvent in cell cultures.
# [2] = system: L1210 murine leukemia (ATCC CCL 219); test: as above; type: cell-based; conditions: for IC50: Mus musculus, L1210, 72 h, read-out: IC50 FOR CELLS IN CULTURE L1210
# Method: as §1, §2
# [3] = target: Human thymidylate synthase (TS) (Homo sapiens, UniProt P04818); test: Thymidylate synthase inhibition constants against 5,10-methylene-tetrahydrofolate; type: biochemical
# Method: (§3) Determination of Inhibition Constants Against 5,10-Methylene-Tetrahydrofolate
# (§4) Thymidylate synthase inhibition constants K₁ have been determined by the following method. All assays were run at 25°C and initiated by the addition of thymidylate synthase ("TS"). […] All reaction mixtures contained 50 mM Tris at pH 7.8 (the final pH of the reaction was 7.6), 10 mM DTT (dithiothreitol), 1 mM EDTA (ethylenediaminetetraacetic acid), 25 mM MgCl₂, 15 mM H₂CO (formaldehyde) and 25 microM dUMP. When human or Leishmania TS was assayed, 100 micrograms/ml of BSA (bovine serum albumin) was present in the reactions.
# [4] = target: L. major thymidylate synthase (TS) (Leishmania major, UniProt P07382); test: biochemical
# Method: as §3
# as §4, with “reactions. […] Charcoal was used to remove unreacted dUMP from the tritium release reaction mixtures and the resultant water was counted to determine the extent of reaction.” for “reactions.”
# [5] = target: E.coli thymidylate synthase (TS) (Escherichia coli, UniProt P0A884); test: Thymidylate synthase inhibition constants against 5,10-methylene-tetrahydrofolate; type: biochemical
# Method: as §3
# as §4, with “reactions. […] Charcoal was used to remove unreacted dUMP from the tritium release reaction mixtures and the resultant water was counted to determine the extent of reaction.” for “reactions.”
# [6] = target: C.albicans thymidylate synthase (TS) (Candida albicans, UniProt P12461); test: as above; type: biochemical
# Method: as §3
# as §4, with “reactions. […] Charcoal was used to remove unreacted dUMP from the tritium release reaction mixtures and the resultant water was counted to determine the extent of reaction.” for “reactions.”
# murine L1210 TS = target: T1, murine L1210 TS (Mus musculus, UniProt P07607); conditions: relative to 10-propargyl-5,8-dideazafolic acid; cited from earlier work
# T1 construct: host or cells: L1210
# [7] = 5 days of continuous exposure, MTT
# [8] = 3 days of continuous exposure, MTT
# [9] = 25°C, pH 7.6, 25 microM dUMP, THF 5 to 150 microM, 100 micrograms/ml BSA, read-out: K1TS Human
# [10] = 25°C, pH 7.6, 25 microM dUMP, THF 5 to 150 microM, read-out: K1TS C.albicans
# Chain of C.albicans thymidylate synthase (TS) (P12461 whole entry): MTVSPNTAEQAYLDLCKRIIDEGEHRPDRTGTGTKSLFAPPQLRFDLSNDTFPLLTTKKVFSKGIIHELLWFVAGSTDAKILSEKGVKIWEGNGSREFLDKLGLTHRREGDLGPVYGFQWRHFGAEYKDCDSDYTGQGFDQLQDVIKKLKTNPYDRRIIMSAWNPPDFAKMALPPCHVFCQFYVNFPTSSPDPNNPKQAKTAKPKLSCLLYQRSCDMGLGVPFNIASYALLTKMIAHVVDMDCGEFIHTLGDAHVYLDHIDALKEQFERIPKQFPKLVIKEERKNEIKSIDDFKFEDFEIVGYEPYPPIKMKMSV
# Chain of E.coli thymidylate synthase (TS) (P0A884 whole entry): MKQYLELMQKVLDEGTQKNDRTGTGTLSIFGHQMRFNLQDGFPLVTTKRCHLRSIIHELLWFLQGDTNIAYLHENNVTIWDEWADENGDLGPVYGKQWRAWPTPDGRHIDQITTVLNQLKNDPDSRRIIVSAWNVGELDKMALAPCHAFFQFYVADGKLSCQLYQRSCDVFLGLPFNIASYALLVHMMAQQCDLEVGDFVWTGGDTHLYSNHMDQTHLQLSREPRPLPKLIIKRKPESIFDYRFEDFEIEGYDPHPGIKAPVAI
# Chain of Human thymidylate synthase (TS) (P04818 whole entry): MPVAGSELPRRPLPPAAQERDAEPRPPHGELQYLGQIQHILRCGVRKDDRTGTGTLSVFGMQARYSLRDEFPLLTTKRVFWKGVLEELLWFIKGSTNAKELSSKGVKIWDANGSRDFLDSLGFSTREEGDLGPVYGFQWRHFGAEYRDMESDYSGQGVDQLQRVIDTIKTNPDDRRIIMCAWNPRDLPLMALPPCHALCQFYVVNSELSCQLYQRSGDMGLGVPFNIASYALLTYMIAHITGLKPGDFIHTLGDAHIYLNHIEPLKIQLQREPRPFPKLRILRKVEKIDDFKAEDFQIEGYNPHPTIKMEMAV
# Chain of L. major thymidylate synthase (TS) (P07382 whole entry): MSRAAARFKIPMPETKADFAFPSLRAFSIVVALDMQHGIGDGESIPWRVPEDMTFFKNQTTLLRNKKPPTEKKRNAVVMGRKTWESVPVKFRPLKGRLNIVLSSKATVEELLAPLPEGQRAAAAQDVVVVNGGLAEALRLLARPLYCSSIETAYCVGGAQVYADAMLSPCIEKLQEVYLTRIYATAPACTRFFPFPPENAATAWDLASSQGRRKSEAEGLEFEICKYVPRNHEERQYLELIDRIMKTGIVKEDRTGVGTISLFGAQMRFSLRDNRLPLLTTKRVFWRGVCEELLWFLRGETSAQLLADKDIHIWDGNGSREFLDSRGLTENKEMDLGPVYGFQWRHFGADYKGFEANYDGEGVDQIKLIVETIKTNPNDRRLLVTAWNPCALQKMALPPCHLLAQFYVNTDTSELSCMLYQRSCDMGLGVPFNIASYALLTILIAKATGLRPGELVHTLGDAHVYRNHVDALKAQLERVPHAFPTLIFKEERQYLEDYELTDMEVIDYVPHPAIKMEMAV
# T1 sequence (P07607 whole entry): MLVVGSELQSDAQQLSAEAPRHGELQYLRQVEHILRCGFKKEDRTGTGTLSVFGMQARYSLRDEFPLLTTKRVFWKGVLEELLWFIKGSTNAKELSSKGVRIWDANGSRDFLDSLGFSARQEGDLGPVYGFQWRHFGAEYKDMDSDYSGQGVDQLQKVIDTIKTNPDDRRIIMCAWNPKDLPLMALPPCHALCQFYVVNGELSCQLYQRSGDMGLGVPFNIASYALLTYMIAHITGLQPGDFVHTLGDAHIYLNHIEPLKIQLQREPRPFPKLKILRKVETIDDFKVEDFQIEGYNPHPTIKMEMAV
Compound,"IC50 [1, 7] [µM]","IC50 [2, 8] [µM]",Ki [5] [µM],"Ki [3, 9] [µM]",also measured
"C#CCN(Cc1ccc2nc(C)[nH]c(=O)c2c1)c1ccc(C#N)c(C(F)(F)F)c1 [3-CF3,4-CN]",> 2.8,> 2.8,0.036 ± 0.007,–,"inhibition at this concentration, CCRF-CEM [1]: no inhibition; inhibition at this concentration, L1210 ([2]; at the highest concentration tested, printed in the same cell or footnote, 3 days): 15%; Ki [3]: 0.081 ± 0.057 µM; Ki [4]: 0.03 µM"
"C#CCN(Cc1ccc2nc(C)nc(O)c2c1)c1ccc([N+](=O)[O-])c(C(F)(F)F)c1 [3-CF3,4-NO2]",–,> 5,0.078 ± 0.076,0.2 ± 0.25,–
"C#CCN(Cc1ccc2nc(C)nc(O)c2c1)c1ccc(S(N)(=O)=O)c(C(F)(F)F)c1 [3-CF3,4-SO2NH2]",–,–,0.19 ± 0.12,0.58 ± 0.74,"Ki [6, 10]: 1.9 ± 0.6 µM"
"C#CCN(Cc1ccc2nc(C)nc(O)c2c1)c1ccc(S(=O)(=O)NCC(=O)O)c(C(F)(F)F)c1 [3-CF3,4-SO2NHCH2COOH]",–,–,0.015 ± 0.003,–,"Ki ([4]; 25°C, pH 7.6, 25 microM dUMP, THF 5 to 150 microM, 100 micrograms/ml BSA, read-out: K1TS L. major): 0.013 µM"
C#CCN(Cc1ccc2nc(C)nc(O)c2c1)c1cccc(C(C)O)c1 (stereo not shown) [3-CH(OH)CH3],> 50,> 50,11.4 ± 9.8,9.6 ± 6.9,–
"C#CCN(Cc1ccc2nc(C)nc(O)c2c1)c1ccc(C#N)c(Cl)c1 [3-Cl, 4-CN]",> 6.8,4.5,0.091 ± 0.052,–,Ki [3]: 0.087 ± 0.001 µM; Ki [6]: 0.28 ± 0.19 µM
C#CCN(Cc1ccc2nc(C)nc(O)c2c1)c1cccc(C#C)c1 [3-C≡CH],> 2.4,> 2.4,32.9 ± 14.1,–,–
C#CCN(Cc1ccc2nc(C)nc(O)c2c1)c1cccc(Br)c1 [Compound 3-Br],> 5.5,> 5.5,5.5 ± 1.3,3.6 ± 2.6,–
C#CCN(Cc1ccc2nc(C)nc(O)c2c1)c1cccc(CC)c1 [Compound 3-C2H5],> 5,> 5,24.5 ± 15.7,23.9 ± 20.8,–
C#CCN(Cc1ccc2nc(C)[nH]c(=O)c2c1)c1cccc(C(F)(F)F)c1 [Compound 3-CF3],> 4.3,> 4.3,–,–,–
C#CCN(Cc1ccc2nc(C)nc(O)c2c1)c1cccc(CO)c1 [Compound 3-CH2OH],> 55,48,6.7 ± 5.4,1.2 ± 0.4,–
C#CCN(Cc1ccc2nc(C)nc(O)c2c1)c1cccc(C)c1 [Compound 3-CH3],> 5,> 5,16.3 ± 9.8,10.2 ± 10.2,"Ki [6, 10]: 7.7 µM"
C#CCN(Cc1ccc2nc(C)nc(O)c2c1)c1cccc(I)c1 [Compound 3-I],> 5.3,> 5.3,49 ± 42.3,4.7 ± 3.7,"Ki [6, 10]: 15.5 ± 5.5 µM"
C#CCN(Cc1ccc2nc(C)nc(O)c2c1)c1ccc(C#N)cc1 [Compound 4-CN],> 5,> 5,0.52 ± 0.46,0.54 ± 0.74,–
C#CCN(Cc1ccc2nc(C)nc(O)c2c1)c1ccc(C(=O)c2ccccc2)cc1 [Compound 4-COPh],> 8.5,6.8,0.5 ± 0.11,0.7 ± 0.19,–
C#CCN(Cc1ccc2nc(C)nc(O)c2c1)c1ccc(Cl)cc1 [Compound 4-Cl],> 4,> 4,5.9 ± 1.8,5.4,"Ki [6, 10]: 10.6 ± 4.7 µM"
C#CCN(Cc1ccc2nc(C)nc(O)c2c1)c1ccc([N+](=O)[O-])cc1 [Compound 4-NO2],> 4.8,4.5,0.12 ± 0.07,0.25 ± 0.21,"Ki [6, 10]: 1.5 ± 1.1 µM"
C#CCN(Cc1ccc2nc(C)[nH]c(=O)c2c1)c1ccc(S(N)(=O)=O)cc1 [Compound 4-SO2NH2],> 25,20,0.25 ± 0.15,0.16 ± 0.12,"inhibition at this concentration, CCRF-CEM [1]: no inhibition; Ki [6, 10]: 1 µM"
C#CCN(Cc1ccc2nc(C)[nH]c(=O)c2c1)c1ccc(S(=O)(=O)c2ccccc2)cc1 [Compound 4-SO2Ph],–,–,–,–,IC50 [1]: 2.5 µM; IC50 [2]: 1 µM
"C#CCN(Cc1ccc2nc(C)[nH]c(=O)c2c1)c1ccc(S(=O)(=O)C(F)(F)F)cc1 [Compound A, N-((3,4-Dihydro-2-methyl-4-oxo-6-quinazolinyl)methyl)-N-(prop-2-ynyl)-4-trifluoromethanesulfonylaniline]",> 2.75,> 2.75,0.015,0.075 ± 0.035,"inhibition at this concentration, CCRF-CEM [1]: no inhibition"
"C#CCN(Cc1ccc2nc(C)[nH]c(=O)c2c1)c1ccc(S(=O)(=O)c2ccccc2)c(C(F)(F)F)c1 [Compound B, N-((3,4-Dihydro-2-methyl-4-oxo-6-quinazolinyl)methyl)-4-(phenylsulfonyl)-N-(prop-2-ynyl)-3-(trifluoromethyl)aniline]",6,3,–,–,–
C#CCN(Cc1ccc2nc(-c3ccccc3)[nH]c(=O)c2c1)c1ccc(Cl)cc1 [Compound C],–,–,42.6 ± 23.1,–,–
"C#CCN(Cc1ccc2nc(C)nc(S)c2c1)c1cccc(C(F)(F)F)c1 [Compound D, N-((3,4-dihydro-2-methyl-4-thio-6-quinazolinyl)methyl)-N-(prop-2-ynyl)-3-trifluoromethylaniline]",–,–,3.3 ± 1.4,17.5 ± 11,–
"C#CCN(Cc1cccc2c(NC=O)coc12)c1ccc([N+](=O)[O-])cc1 [Compound E, N-((3-Formylamino-7-benzofuranyl)methyl)-N-(prop-2-ynyl)-4-nitroaniline]",–,–,70.9 ± 1.8,–,–
C#CCN(Cc1ccc2nc(C)[nH]c(=O)c2c1)c1ccccc1 [—],> 10,> 10,–,–,–
"tetraglutamate of 10-propargyl-5,8-dideazafolic acid",–,–,–,–,binds more tightly to murine L1210 TS than the monoglutamate parent compound (murine L1210 TS): 119 fold
